# Earlier results as cited in patent US9795715B2, “Bone tissue engineering by ex vivo stem cells ongrowth into three-dimensional trabecular metal” (Zimmer Trabecular Metal Technology, Inc., priority 2004, dated 2017).
# Tested on: porcine embryos
# Settings: 0.5 mg/mL
substance,measurement,value
hyaluronan,development of porcine embryos in culture,increase the development of porcine embryos
